From patent publication US9682941B2, “Substituted biphenyl analogues as dual inhibitors of aromatase and sulfatase” (ESTRYX PHARMA LIMITED, priority 2013, dated 2017)

Key:
CYP1A2 = target: T1, CYP1A2 (Homo sapiens, UniProt P05177); test: Cytochrome P450 inhibition, human recombinant CYP1A2; type: in vitro ADME; details: recombinant human CYP, 15 minutes, 37° C.
T1 sequence (P05177 1-516): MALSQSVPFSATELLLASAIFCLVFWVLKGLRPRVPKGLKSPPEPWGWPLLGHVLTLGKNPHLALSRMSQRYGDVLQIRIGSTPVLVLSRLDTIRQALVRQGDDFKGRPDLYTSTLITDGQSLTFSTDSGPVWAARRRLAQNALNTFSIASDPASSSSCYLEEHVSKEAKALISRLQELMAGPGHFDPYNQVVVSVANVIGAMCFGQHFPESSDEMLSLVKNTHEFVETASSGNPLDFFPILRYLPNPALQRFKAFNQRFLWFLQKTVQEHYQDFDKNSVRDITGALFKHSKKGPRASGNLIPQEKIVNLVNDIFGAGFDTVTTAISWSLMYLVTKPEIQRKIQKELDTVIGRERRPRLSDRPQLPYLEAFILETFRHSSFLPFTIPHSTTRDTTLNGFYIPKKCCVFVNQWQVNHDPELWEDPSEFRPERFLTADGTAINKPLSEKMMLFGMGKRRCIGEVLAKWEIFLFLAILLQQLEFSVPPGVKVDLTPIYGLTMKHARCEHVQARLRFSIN
Protocol: (§1) Inhibitory activity of the compounds towards CYP1A2, 2C9, 2C19, 2D6, and 3A4 was evaluated using human recombinant CYPs. Test compounds and reference inhibitors were initially prepared from their stock solutions in a mixture solvent of DMSO/ACN (10/90) at a concentration of 200-fold of the final. A 3-fold serial dilution (1/3, 1/9, 1/27 etc.) was made in the DMSO/ACN mixture solvent to generate 7 consecutive concentrations. The serially diluted solutions of test compounds and reference inhibitors (positive controls) were further diluted directly in recombinant human CYP enzymes in assay buffer (0.1 M potassium phosphate buffer, pH7.4) to reach the concentration of 2-fold of the final (2×). Aliquots of 30 μL of 2× compound/enzyme solutions were loaded to a 96-well assay plates and preincubated at 37° C. for 10 minutes. An aliquot of 15 μL of prewarmed 4× substrate solutions made in the assay buffer was added into each of the wells containing the 2× compound/enzyme mixtures. Finally, the reaction was initiated by adding an aliquot of 15 μL of 4×NADPH made in the assay buffer and the assay plates were further incubated at 37° C. for a time period designated for each isoform (5 minutes for 3A4, 20 minutes for 2C9, 10 minutes for 2D6 and 2C19, and 15 minutes for 1A2). The reactions were stopped by adding 120 μL ACN containing the stable isotopes of the metabolites for corresponding CYP isoforms, followed by vortexing for 5 minutes and centrifugation at 4000 rpm for 15 minutes. The resulting supernatants were transferred into new 96-well plates for LC-MS/MS analysis. Experiments are performed in duplicate. The inhibitory concentration of 50% of the enzymatic activity is calculated.

CYP2C9 = CYP2C9 (Homo sapiens, UniProt P11712); test: Cytochrome P450 inhibition, human recombinant CYP2C9; type: in vitro ADME; details: recombinant human CYP, 20 minutes, 37° C.
Protocol: as §1

steroid sulfatase = target: T2, steroid sulfatase (Homo sapiens, UniProt P08842); test: Steroid sulfatase (STS) inhibition assay in JEG-3 cells ([6,7-3H] estrone sulfate); type: cell-based; details: 1 hour at 37° C., duplicate
T2 construct: JEG-3 which constitutively expresses high amount of aromatase and steroid sulfatase; endogenous in cells; host or cells: JEG-3
T2 sequence (P08842 22-583): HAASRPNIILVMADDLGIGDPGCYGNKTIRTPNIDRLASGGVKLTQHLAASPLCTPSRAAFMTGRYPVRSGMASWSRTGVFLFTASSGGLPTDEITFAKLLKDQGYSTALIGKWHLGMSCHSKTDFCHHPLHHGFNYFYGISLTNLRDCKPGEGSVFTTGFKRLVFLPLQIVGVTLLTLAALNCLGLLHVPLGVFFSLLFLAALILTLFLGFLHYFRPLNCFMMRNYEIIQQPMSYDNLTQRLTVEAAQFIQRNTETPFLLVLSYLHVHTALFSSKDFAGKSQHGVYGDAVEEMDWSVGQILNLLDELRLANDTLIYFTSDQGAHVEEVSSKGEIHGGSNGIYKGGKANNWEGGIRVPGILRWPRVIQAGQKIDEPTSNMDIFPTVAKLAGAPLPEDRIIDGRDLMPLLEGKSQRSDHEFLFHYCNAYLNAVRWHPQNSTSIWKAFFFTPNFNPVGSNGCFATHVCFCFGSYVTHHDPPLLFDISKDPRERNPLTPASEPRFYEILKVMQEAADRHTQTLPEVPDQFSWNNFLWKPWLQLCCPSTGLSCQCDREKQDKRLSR
Protocol: (§2) Aromatase and steroid sulfatase enzymes inhibitions were evaluated in the human chorionic carcinoma cell line JEG-3 which constitutively expresses high amount of aromatase and steroid sulfatase.
For STS assay, JEG-3 cells were seeded into 24-well culture plates at 150,000 cells/ml/well and maintained in MEM containing supplements overnight. When reaching 80% confluent, the cells were washed once with serum-free MEM, loaded with 1 ml of substrate mix containing [6,7-3H] Estrone sulfate (E1S, 0.6 μCi/ml) and [4-14C] Estrone (E1, 4 nCi/ml) in the presence of compounds in a concentration series, and incubated for 1 hour at 37° C. The product [3H]E1 was separated from E1S by toluene partition using [4-14C]E1 to monitor extraction procedural losses, and the toluene fraction radioactivity was measured by a MicroBeta scintillation counter.
(§3) Experiments are performed in duplicate. The inhibitory concentration of 50% of the enzymatic activity is calculated.

CYP3A4 = CYP3A4 (Homo sapiens, UniProt P08684); test: Cytochrome P450 inhibition, human recombinant CYP3A4; type: in vitro ADME; details: recombinant human CYP, 5 minutes, 37° C.
Protocol: as §1

aromatase = target: T3, aromatase (Homo sapiens, UniProt P11511); test: Aromatase inhibition assay in JEG-3 cells ([1β-3H] androstenedione, tritiated water release); type: cell-based; details: 1.25 hour incubation, duplicate
T3 construct: JEG-3 which constitutively expresses high amount of aromatase and steroid sulfatase; endogenous in cells; host or cells: JEG-3
T3 sequence (P11511 1-503): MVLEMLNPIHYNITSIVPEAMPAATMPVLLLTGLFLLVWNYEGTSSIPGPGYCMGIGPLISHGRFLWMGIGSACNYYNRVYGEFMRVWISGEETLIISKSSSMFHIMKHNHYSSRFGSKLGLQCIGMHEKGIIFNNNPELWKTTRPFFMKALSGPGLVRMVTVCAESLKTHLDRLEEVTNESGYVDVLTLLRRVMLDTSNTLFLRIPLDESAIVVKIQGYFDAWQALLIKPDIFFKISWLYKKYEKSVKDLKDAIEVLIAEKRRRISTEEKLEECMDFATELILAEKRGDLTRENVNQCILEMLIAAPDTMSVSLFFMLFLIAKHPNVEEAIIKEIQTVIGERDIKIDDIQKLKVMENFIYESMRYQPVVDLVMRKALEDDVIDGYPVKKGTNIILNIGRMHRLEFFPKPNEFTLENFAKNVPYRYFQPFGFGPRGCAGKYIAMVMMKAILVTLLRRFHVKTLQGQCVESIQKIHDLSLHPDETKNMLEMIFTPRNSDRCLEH
Protocol: as §2
For aromatase inhibition assay, JEG-3 cells were seeded into 96-well plates at 35,000 cells/well and maintained in MEM containing supplements. When reaching 80% confluent, the cells were washed once with serum-free MEM, incubated with [1β-^3H] androstenedione (A4, 0.2 μCi/ml) for 1.25 hour in the presence of the test substances added in a concentration series. The product, tritiated water (^3H2O), was separated using 2.5% (w/v) dextran-coated charcoal at 4-8° C. for 2 hours. The supernatant radioactivity was measured by a MicroBeta scintillation counter.
as §3

CYP2C19 = CYP2C19 (Homo sapiens, UniProt P33261); test: Cytochrome P450 inhibition, human recombinant CYP2C19; type: in vitro ADME; details: recombinant human CYP, 10 minutes, 37° C.
Protocol: as §1

CYP2D6 = CYP2D6 (Homo sapiens, UniProt P10635); test: Cytochrome P450 inhibition, human recombinant CYP2D6; type: in vitro ADME; details: recombinant human CYP, 10 minutes, 37° C.
Protocol: as §1

Chain of CYP2D6 (P10635 whole entry): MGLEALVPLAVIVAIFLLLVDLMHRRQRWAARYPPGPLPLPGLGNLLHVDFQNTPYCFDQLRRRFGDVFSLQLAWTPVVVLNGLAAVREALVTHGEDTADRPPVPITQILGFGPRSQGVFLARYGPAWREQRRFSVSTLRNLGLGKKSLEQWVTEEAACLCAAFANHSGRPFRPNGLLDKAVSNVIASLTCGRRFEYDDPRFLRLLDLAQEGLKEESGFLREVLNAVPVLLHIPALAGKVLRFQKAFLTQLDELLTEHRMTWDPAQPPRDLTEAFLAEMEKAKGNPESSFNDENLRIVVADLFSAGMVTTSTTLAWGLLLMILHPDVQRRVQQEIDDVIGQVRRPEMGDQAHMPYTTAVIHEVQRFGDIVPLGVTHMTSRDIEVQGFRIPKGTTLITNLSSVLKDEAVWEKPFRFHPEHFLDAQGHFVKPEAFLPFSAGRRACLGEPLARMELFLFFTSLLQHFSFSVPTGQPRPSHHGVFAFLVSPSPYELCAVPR
Chain of CYP3A4 (P08684 whole entry): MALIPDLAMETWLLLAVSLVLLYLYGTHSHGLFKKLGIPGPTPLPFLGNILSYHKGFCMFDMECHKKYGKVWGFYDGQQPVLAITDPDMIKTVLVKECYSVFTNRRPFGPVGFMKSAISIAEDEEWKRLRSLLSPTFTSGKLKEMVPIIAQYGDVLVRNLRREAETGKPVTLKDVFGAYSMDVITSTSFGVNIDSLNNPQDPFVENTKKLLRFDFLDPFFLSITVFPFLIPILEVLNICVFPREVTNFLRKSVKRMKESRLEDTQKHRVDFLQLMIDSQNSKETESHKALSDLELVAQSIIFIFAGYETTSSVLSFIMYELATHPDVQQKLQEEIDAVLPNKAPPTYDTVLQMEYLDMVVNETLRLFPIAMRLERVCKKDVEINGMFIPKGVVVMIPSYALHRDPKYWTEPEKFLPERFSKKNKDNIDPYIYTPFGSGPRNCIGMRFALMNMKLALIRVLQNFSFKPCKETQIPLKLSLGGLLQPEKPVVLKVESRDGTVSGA
Chain of CYP2C19 (P33261 whole entry): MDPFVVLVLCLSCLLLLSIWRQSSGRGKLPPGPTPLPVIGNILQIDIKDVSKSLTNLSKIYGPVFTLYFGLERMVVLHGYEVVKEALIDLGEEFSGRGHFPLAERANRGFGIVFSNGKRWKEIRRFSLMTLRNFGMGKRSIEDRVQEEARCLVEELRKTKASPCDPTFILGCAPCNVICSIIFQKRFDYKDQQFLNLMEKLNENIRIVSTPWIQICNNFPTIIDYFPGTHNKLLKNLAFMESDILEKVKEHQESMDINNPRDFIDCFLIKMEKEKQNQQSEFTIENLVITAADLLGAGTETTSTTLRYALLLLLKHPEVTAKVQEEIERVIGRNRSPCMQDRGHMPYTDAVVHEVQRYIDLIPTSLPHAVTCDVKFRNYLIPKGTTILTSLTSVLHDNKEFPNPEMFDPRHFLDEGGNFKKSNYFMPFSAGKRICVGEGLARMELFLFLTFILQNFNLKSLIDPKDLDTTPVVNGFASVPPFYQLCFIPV
Chain of CYP2C9 (P11712 whole entry): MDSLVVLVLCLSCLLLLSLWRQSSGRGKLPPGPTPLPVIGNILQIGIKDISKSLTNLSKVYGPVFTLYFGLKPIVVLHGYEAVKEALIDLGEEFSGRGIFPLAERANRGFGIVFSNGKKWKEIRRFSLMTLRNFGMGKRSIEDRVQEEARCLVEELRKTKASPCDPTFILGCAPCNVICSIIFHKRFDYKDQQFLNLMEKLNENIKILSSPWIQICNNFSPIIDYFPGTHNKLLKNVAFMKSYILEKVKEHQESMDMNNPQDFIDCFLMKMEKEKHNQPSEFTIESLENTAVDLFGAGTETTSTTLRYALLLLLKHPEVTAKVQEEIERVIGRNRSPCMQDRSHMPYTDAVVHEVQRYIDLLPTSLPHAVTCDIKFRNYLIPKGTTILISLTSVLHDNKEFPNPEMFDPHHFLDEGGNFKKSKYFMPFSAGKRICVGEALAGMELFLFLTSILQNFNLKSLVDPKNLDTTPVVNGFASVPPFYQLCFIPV

Row | IC50 (CYP1A2) [µM] | IC50 (CYP2C9) [µM] | IC50 (steroid sulfatase) [µM] | IC50 (CYP3A4) [µM] | IC50 (aromatase) [µM] | IC50 (CYP2C19) [µM] | IC50 (CYP2D6) [µM] | SMILES
1 | > 5 | > 5 | 0.0018 | 3.68 | 0.0035 | > 5 | > 5 | N#Cc1cnc(Cn2cnc3ccccc32)nc1-c1ccc(OS(N)(=O)=O)cc1 [Example 9, 4-(2-((1H-Benzo[d]imidazol-1-yl)methyl)-5-cyanopyrimidin-4-yl)phenyl sulfamate]
2 | > 5 | > 5 | 0.0039 | > 5 | 0.0022 | > 5 | > 5 | N#Cc1cnc(Cn2cnc3ccccc32)cc1-c1ccc(OS(N)(=O)=O)cc1 [Example 17, 4-(2-((1H-Benzo[d]imidazol-1-yl)methyl)-5-cyanopyridin-4-yl)phenyl sulfamate]
3 | > 5 | > 5 | 0.006 | > 5 | 0.0037 | > 5 | > 5 | N#Cc1ccc(Nn2cnc3ccccc32)nc1-c1ccc(OS(N)(=O)=O)cc1 [Example 22, 4-(6-(1H-Benzo[d]imidazol-1-ylamino)-3-cyanopyridin-2-yl)phenyl sulfamate]
4 | > 5 | > 5 | 0.002 | 3.26 | 0.0009 | > 5 | > 5 | N#Cc1ccc(Cn2cnc3cc(F)c(F)cc32)cc1-c1ccc(OS(N)(=O)=O)cc1 [Example 24, 2′-Cyano-5′-((5,6-difluoro-1H-benzo[d]imidazol-1-yl)methyl)biphenyl-4-yl sulfamate]
5 | > 5 | > 5 | 0.0118 | 2.54 | 0.0027 | > 5 | > 5 | N#Cc1cnc(Nn2cnc3ccccc32)cc1-c1ccc(OS(N)(=O)=O)cc1 [Example 26, 4-(2-(1H-Benzo[d]imidazol-1-ylamino)-5-cyanopyridin-4-yl)phenyl sulfamate]
6 | > 5 | > 5 | 0.0105 | > 5 | 0.0046 | > 5 | > 5 | N#Cc1ncc(Cn2cnc3ccccc32)cc1-c1ccc(OS(N)(=O)=O)cc1 [Example 31, 4-(5-((1H-Benzo[d]imidazol-1-yl)methyl)-2-cyanopyridin-3-yl)phenyl sulfamate]
7 | > 5 | > 5 | 0.0105 | > 5 | 0.002 | > 5 | > 5 | N#Cc1cnc(Cn2cnc3cccnc32)cc1-c1ccc(OS(N)(=O)=O)cc1 [Example 36, 4-(2-((3H-Imidazo[4,5-b]pyridin-3-yl)methyl)-5-cyanopyridin-4-yl)phenyl sulfamate]
